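Step 1: Grow cells in 96-well plates. Step 2: Expose to compound for 48 hours at 5 concentrations. Step 3: Interpolate endpoints linearly; if unreached, use highest concentration. GI50 is the concentration that inhibits growth by half.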 Calls of active or inactive are those of the source. Cut-off read from the data, not from the text of the source: active = GI50 up to about 1.1 µM and inactive = higher.
Legend:
Assay in all cases: inhibition of tumour cell growth, NCI panel, 48 h
[1] = test system: 786-0
[2] = test system: ACHN
[3] = test system: CCRF-CEM
[4] = test system: COLO 205
[5] = test system: HCT-116
[6] = test system: IGROV-1
[7] = test system: KM12
[8] = test system: MDA-N
[9] = test system: NCI-H23
[10] = test system: NCI-H522
[11] = test system: NCI/ADR-RES
[12] = test system: OVCAR-3
[13] = test system: OVCAR-4
[14] = test system: OVCAR-8
[15] = test system: SN12C
[16] = test system: SNB-19
[17] = test system: T47D
[18] = test system: TK-10
[19] = test system: UACC-257

Measured: GI50

CSCCC(NC(c1ccccc1)c1ccccc1)[PH](=O)O (stereo unspecified)
inactive: [1] > 100 µM | [2] > 100 µM | [3] > 100 µM | [4] > 100 µM | [5] > 100 µM | [6] > 100 µM | [7] > 100 µM | [8] 10 µM | [9] > 100 µM | [10] > 100 µM | [11] > 100 µM | [12] > 100 µM | [13] > 100 µM | [14] > 100 µM | [15] > 100 µM | [16] > 100 µM | [17] > 100 µM | [18] > 100 µM | [19] > 100 µM

CCN1C2=NCCN2S(=O)(=O)c2ccccc21
inactive: [1] > 100 µM | [2] > 100 µM | [3] > 100 µM | [4] > 100 µM | [5] > 100 µM | [6] > 100 µM | [7] > 100 µM | [8] > 100 µM | [9] > 100 µM | [10] 59 µM | [11] > 100 µM | [12] > 100 µM | [13] > 100 µM | [14] > 100 µM | [15] > 100 µM | [16] > 100 µM | [17] > 100 µM | [18] > 100 µM | [19] > 100 µM

CSc1nc(C)cc(Nc2ccc(O)c(CN3CCOCC3)c2)n1
inactive: [1] > 100 µM | [2] > 100 µM | [3] > 100 µM | [4] > 100 µM | [5] > 100 µM | [6] > 100 µM | [7] > 100 µM | [8] > 100 µM | [9] > 100 µM | [10] > 100 µM | [11] > 100 µM | [12] > 100 µM | [13] > 100 µM | [14] > 100 µM | [15] > 100 µM | [16] > 100 µM | [17] 71.9 µM | [18] > 100 µM | [19] > 100 µM

S=C(S)NCC1CCC(CNC(=S)S)CC1 (stereo unspecified)
inactive: [1] 4.63 µM | [2] 20.7 µM | [3] 10.7 µM | [4] 42 µM | [5] 19.7 µM | [6] 18.3 µM | [7] 19.7 µM | [8] 26.7 µM | [9] 44.5 µM | [10] 12.7 µM | [11] 67.8 µM | [12] 16.5 µM | [13] 42.8 µM | [14] 20.9 µM | [15] 20.6 µM | [16] > 100 µM | [17] 16.3 µM | [18] 22.6 µM | [19] 26.3 µM
